This note sets out measurements from patent US8865901B2, “Gain-of-function Bcl-2 inhibitors” (priority 2009, dated 2014).

One series relates to H23, NSCLC tumor. Put plainly: Apoptosis induction against solid tumors in vitro, H23. It is filed as cell-based. On the procedure: (§1) The ability of compounds from Example 2 to induce apoptosis against solid tumors in vitro was tested. Four solid tumors were tested: OVCAR-3, an ovarian tumor; COLO205, a colonic tumor; HOP-62 and H23, both NSCLC tumors. The experimental compounds were compared to 2MeAA and to ABT-737, a clinical stage compound owned by Abbott Pharma.
(§2) The ability of compounds of Example 8 to induce apoptosis against solid tumors in vitro was tested. Four solid tumors were tested: OVCAR-3, an ovarian tumor; COLO205, a colonic tumor; HOP-62 and H23, both NSCLC tumors. The experimental compounds, […]

The subject of series [1] is TAMH cells transfected with Neo vector (Neo). The series is described as follows: Cytotoxicity / apoptosis induction in TAMH cells transfected with Neo vector. As to conditions: TAMH Neo cells. Format: cell-based. How it is done: (§3) To examine the sensitivity of cells over-expressing Bcl-xL to various mitochondrial inhibitors and apoptosis inducers, cell lines over-expressing Bcl-xL were prepared and tested according to Hockenberry et al. U.S. Pat. No. 7,241,804, hereby incorporated by reference in its entirety. Competitive binding of compounds with fluorescent antimycin A3, and competitive binding of compounds with BH3 peptide and Bcl-2. Competitive binding of compounds with BH-3 peptide were also measured using Bcl-xL as previously described. Id.
(§4) Cell lines were grown in RPMI 1640 medium (Gibco, Grand Island, N.Y.) supplemented with 5% fetal bovine serum (Hyclone, Logan, Utah). Also shown is the ratio of TAMH cells expressing Bcl-xL to those expressing A142L (WT:142L). The assay measures the potency of various compounds with respect to inducing apoptosis in these cells.
(§5) The compounds described in Example 2 were tested for their ability to inhibit Bcl-2 gain-of-function in TAMH cells, TAMH cells overexpressing […] (TAMH-Bcl-xL), TAMH cells transfected with Neo vector (Neo), TAMH cells over expressing a variant of Bcl-xL (A142L) using the methods of Example 1. 3-6.
(§6) The effects of the compounds described in Example 8 on TAMH cells, TAMH cells overexpressing Bcl-xL (TAMH-Bcl-xL), TAMH cells transfected with Neo vector (Neo), TAMH cells over expressing a variant of Bcl-xL (A142L) is shown in Table 8
(§7) The effects of the compounds described in Example 10 on TAMH cells, TAMH cells overexpressing Bcl-xL (TAMH-Bcl-xL), TAMH cells transfected with Neo vector (Neo), TAMH cells over expressing a variant of Bcl-xL (A142L) is shown in the following Table 10

Series [2] concerns TAMH cells over expressing a variant of Bcl-xL (A142L). Put plainly: Cytotoxicity / apoptosis induction in TAMH cells over expressing Bcl-xL variant A142L. It is filed as cell-based. As to conditions: Table 4; for EC50: TAMH A142L cells; for WT:142L: ratio of TAMH cells expressing Bcl-xL to those expressing A142L. On the procedure: as §3, §4, §5
Series [3] deals with OVCAR-3, an ovarian tumor. Put plainly: Apoptosis induction against solid tumors in vitro, OVCAR-3. Format: cell-based. On the procedure:
as §1, §2

A further series has as its system COLO205, a colonic tumor. The series is described as follows: Apoptosis induction against solid tumors in vitro, COLO205. It is filed as cell-based. On the procedure:
as §1, §2

The test system of series [4] is TAMH cells overexpressing Bcl-xL (TAMH-Bcl-xL, Tabx2s). Put plainly: Cytotoxicity / apoptosis induction in TAMH cells overexpressing Bcl-xL. It is filed as cell-based. As to conditions: for Neo:Bcl: ratio Neo to Bcl-xL cells. How it is done:
as §3, §4, §5, §6, §7

For another series, the system named is HOP-62, NSCLC tumor. The series is described as follows: Apoptosis induction against solid tumors in vitro, HOP-62. It is filed as cell-based. On the procedure:
as §1, §2

Series [5] has as its system CFPAC-1, HPAF-II MIA PaCa, PaTu-1, PaTu-8988t, ASPC-1, FA-6, and PANC-1 cell lines. The series is described as follows: EC50 in a panel of pancreatic cell lines. Format: cell-based. Conditions: Homo sapiens; every pancreatic cell line of the panel, but for HPAF-II; FIG. 1. How it is done: The EC50 for the Compound 0216 (see structure above) was determined in a panel of pancreatic cell lines.
The panel included CFPAC-1, HPAF-II MIA PaCa, PaTu-1, PaTu-8988t, ASPC-1, FA-6, and PANC-1 cell lines. Pancreatic cancer samples were obtained from patients, with appropriate patient consent and approval of the Fred Hutchinson Cancer Research Center Institutional Review Board. Primary cells were maintained in Iscove's medium supplemented with 10% bovine calf serum, 100 ng·ml^−1 stem cell factor, and 50 ng·ml^−1 interleukin-3.
The EC50 values were measured with compound 216. […] This means that this molecule has a broad ability to induce apoptosis in a wide variety of pancreatic cancers.
The panel included CFPAC-1, HPAF-II MIA PaCa, PaTu-1, PaTu-8988t, ASPC-1, FA-6, and PANC-1 cell lines. Pancreatic cancer samples were obtained from patients, with appropriate patient consent and institutional approval. Primary cells were maintained in Iscove's medium supplemented with 10% bovine calf serum, 100 ng·ml^−1 stem cell factor, and 50 ng·ml^−1 interleukin-3.
The EC50 values were measured with compound FH279.

A short description of another series: Log P. As to conditions: Table 3.
For the next series, the system named is Colo205 cells. The series is described as follows: Mouse colon carcinoma xenograft model. Format: in vivo, NOD/Les2 SCID/J mice. Conditions: daily intraperitoneal administration, single agent; FIG. 4. How it is done: The ability of the experimental compounds to inhibit tumor growth in a body was tested in a mouse colon carcinoma xenograft model.
Six to nine-week old NOD/Les2 SCID/J mice were inoculated with 3×10^7 Colo205 cells by interscapular subcutaneous injection. Mice were maintained under specific pathogen-free conditions. Palpable tumor nodules were measured in two dimensions with calipers and tumor volumes calculated in mm3 as (length×width^2)/2. Blood samples were collected by retro-orbital bleed for human light chain measurements by ELISA using lambda-specific antibody (BD Biosciences). Animals were sacrificed by halothane inhalation, and histologic examination of the tumors and internal organs was performed. All experiments were approved by the FHCRC Institutional Animal Care and Use Committee.
Animals were treated by daily intraperitoneal administration of Compound 0511 (see structure above in Example 2).
Six to nine-week old NOD/Les2 SCID/J mice were inoculated with 3×10^7 Colo205 cells by interscapular subcutaneous injection. Mice were maintained under specific pathogen-free conditions. Palpable tumor nodules were measured in two dimensions with calipers and tumor volumes calculated in mm3 as (length×width^2)/2. Blood samples were collected by retro-orbital bleed for human light chain measurements by ELISA using lambda-specific antibody (BD Biosciences). […]

[6] abbreviates: Table 4, TAMH-Bcl-xL cells, read-out: Bcl-xL.
Setting [7] is: Homo sapiens, NCI-H23, Table 21.
Where [8] appears, read: Homo sapiens, COLO 205, Table 21.

Read-outs that look alike come from different tables or passages of the source.

With “2-methoxy antimycin A [Compound 2-MeAA, reference compound]”, the EC50 was 2.7 µM with H23, NSCLC tumor (Table 7); 2.7 µM in the series on H23, NSCLC tumor (Table 21); 15.6 µM in [1] (Table 4, read-out: Neo); 10.3 µM in [2]; 3.5 µM in series [3] (Table 7); 3.5 µM in [3] (Table 21). Further, the EC50 is 1.8 µM in the series with COLO205, a colonic tumor (Table 7); 1.8 µM in the series with COLO205, a colonic tumor (Table 21); 2.5 µM in [4] (setting [6]); 3.9 µM in the series with HOP-62, NSCLC tumor (Table 7); 3.9 µM in the series with HOP-62, NSCLC tumor (Table 21). Besides, the “WT:142L” value in series [2] is on record as 4.1. Also, in series [4] (Table 4), the “Neo:Bcl” value was found to be 6.9.

For the molecule `CN(C)CC[C@H](CSc1ccccc1)Nc1ccc(S(=O)(=O)NC(=O)c2ccc(N3CCN(Cc4ccccc4-c4ccc(Cl)cc4)CC3)cc2)cc1[N+](=O)[O-]` [ABT-737, reference compound], the EC50 was greater than 25 µM in the series on H23, NSCLC tumor (Homo sapiens, NCI-H23, Table 7); greater than 25 µM in the series with H23, NSCLC tumor (Table 21); 17 µM in series [3] (Homo sapiens, Table 7); greater than 25 µM with COLO205, a colonic tumor (Homo sapiens, COLO 205, Table 7); greater than 25 µM in the series with COLO205, a colonic tumor (Table 21); greater than 25 µM with HOP-62, NSCLC tumor (Homo sapiens, Table 7). The EC50 in the series with HOP-62, NSCLC tumor (Table 21) is greater than 25 µM.

Turning to `O=[N+]([O-])c1cccc(/C=N/Nc2ccccn2)c1O` [Compound 0208], the EC50 is 8.2 µM in the series with H23, NSCLC tumor (Table 7); greater than 25 µM in [1] (Table 4, read-out: Neo); 9.7 µM in series [2]; 3.8 µM in series [3] (Table 7); 9.2 µM with COLO205, a colonic tumor (Table 7); 4.4 µM in series [4] (setting [6]). In the series with HOP-62, NSCLC tumor (Table 7), the EC50 came out at 17.5 µM. The “WT:142L” value in series [2] came to 2.2. The “Neo:Bcl” value in series [4] (Table 4) is 5.7.

Regarding `O=[N+]([O-])c1ccc(SCc2ccccc2)c2nonc12` [Compound 0216], the EC50 in [1] (Mus musculus, Table 6, read-out: Neo EC50) was 3.7 µM; in [5], less than 10 µM; in series [4] (Mus musculus, Table 6, TAMH cells overexpressing Bcl-xL (Tabx2s), read-out: 2S EC50), 1.2 µM. Also, the “sensitivity to the apoptosis-inducing effects” value in series [4] (TAMH cells overexpressing Bcl-xL compared to TAMH neo cells, FIG. 2) is listed as “more sensitive”.

Consider `Oc1c(Cl)cc(Cl)cc1/C=N/Nc1ccc(C(F)(F)F)cn1` [Compound 0235], for which the EC50 was 3.7 µM with H23, NSCLC tumor (Table 7); 11 µM in series [1] (Table 4, read-out: Neo); 8.5 µM in [2]; 2.7 µM in series [3] (Table 7); 6.7 µM with COLO205, a colonic tumor (Table 7); 3.9 µM in series [4] (setting [6]). In the series with HOP-62, NSCLC tumor (Table 7), this molecule displayed an EC50 of 8.3 µM. Moreover, the “WT:142L” value in series [2] came out at 2.2. Moreover, the “Neo:Bcl” value in [4] (Table 4) is given as 2.8.

Regarding `Oc1c(Br)cc(Cl)cc1/C=N/Nc1ccc(C(F)(F)F)cn1` [Compound 0239], the EC50 in the series on H23, NSCLC tumor (Table 7) is 5.6 µM; in series [1] (Table 4, read-out: Neo), 17.2 µM; in series [2] it was 13.3 µM; in [3] (Table 7) it was 4.2 µM; with COLO205, a colonic tumor (Table 7), greater than 25 µM; in series [4] (setting [6]) it was 4.3 µM. The same molecule gave an EC50 in the series with HOP-62, NSCLC tumor (Table 7) of 19.1 µM. Further, the “WT:142L” value in [2] was 3.1. Also, the “Neo:Bcl” value in [4] (Table 4) is given as 4.

As to `CC(C)(C)c1cc(Br)c(O)c(/C=N/Nc2ccccn2)c1` [Compound 0401], the EC50 was 40.8 µM in [1] (Table 3, read-out: Neo EC50); greater than 25 µM in series [1] (Table 4, read-out: Neo); greater than 25 µM in series [2]; 1.7 µM in series [4] (Table 3, TAMH cells overexpressing Bcl-xL (Tabx2s), read-out: 2S EC50); 4.4 µM in [4] (setting [6]). Further, the “WT:142L” value in series [2] turned out to be 2.2. Further, the “Log P” value in the series “Log P” was 4.810. In addition, in series [4] (Table 4), the “Neo:Bcl” value is 5.7.

Consider `O=C1c2ccccc2C(=O)c2c1n[n+]([O-])n2CCCN1CCN(c2ccccn2)CC1` [Compound 0511], for which, in the series on Colo205 cells, the tumor growth result was “effective in inhibiting tumor growth”.

Consider `Oc1c(Cl)cc(Cl)cc1/C=N/Nc1ccc(C(F)(F)F)cn1` [FH092], for which the EC50 stood at 3.7 µM with H23, NSCLC tumor (setting [7]); 2.7 µM in series [3] (Homo sapiens, Table 21); 6.7 µM with COLO205, a colonic tumor (setting [8]); 8.3 µM in the series with HOP-62, NSCLC tumor (Homo sapiens, Table 21).

`Oc1c(Br)cc(Cl)cc1/C=N/Nc1ccc(C(F)(F)F)cn1` [FH096]: the EC50 in the series on H23, NSCLC tumor (setting [7]) was 5.6 µM; in series [3] (Homo sapiens, Table 21), 4.2 µM; with COLO205, a colonic tumor (setting [8]), greater than 25 µM; with HOP-62, NSCLC tumor (Homo sapiens, Table 21) it was 19.1 µM.

Consider `O=[N+]([O-])c1cccc(/C=N/Nc2ccc3ccccc3n2)c1O` [FH297], for which the EC50 worked out at 2.8 µM with H23, NSCLC tumor (setting [7]); 1.5 µM in series [3] (Homo sapiens, Table 21); 1 µM in the series with COLO205, a colonic tumor (setting [8]); 2.7 µM in the series with HOP-62, NSCLC tumor (Homo sapiens, Table 21).

On to `O=[N+]([O-])c1ccc(O)c(/C=N/Nc2nccc3ccccc23)c1O` [FH314], for which the EC50 in the series with H23, NSCLC tumor (setting [7]) came out at 8.2 µM; in [3] (Homo sapiens, Table 21), 3.8 µM; in the series on COLO205, a colonic tumor (setting [8]), 9.2 µM; with HOP-62, NSCLC tumor (Homo sapiens, Table 21) it was 17.5 µM.

Usually Log P stands for a log measure of how a compound divides between an organic and an aqueous phase. Low values mean lower lipophilicity, high ones higher lipophilicity.
